Results from ChEMBL document CHEMBL1144219, “Synthesis of new 4-[2-(4-methyl(amino)sulfonylphenyl)-5-trifluoromethyl-2H-pyrazol-3-yl]-1,2,3,6-tetrahydropyridines: a search for novel nitric oxide donor anti-inflammatory agents” (2008).
Calls of active or inactive are those of the source. No cut-off for these calls is given here.

Columns and labels:
Rattus norvegicus [1] = experiment: Antiinflammatory activity against po dosed carrageenan-induced rat foot paw edema model; type: functional
Rattus norvegicus [2] = experiment: Antiinflammatory activity against carrageenan-induced rat foot paw edema model at 100 mg/kg, po; type: functional

SMILES	ED50 (Rattus norvegicus [1])	other results
CC(=O)Oc1ccccc1C(=O)O [ASPIRIN]	129 mg/kg	
CCOC(=O)N1CC=C(c2cc(C(F)(F)F)nn2-c2ccc(S(N)(=O)=O)cc2)CC1		Activity (Rattus norvegicus [2]): inactive
CS(=O)(=O)c1ccc(-n2nc(C(F)(F)F)cc2C2=CCNCC2)cc1	129 mg/kg	
CN1CC=C(c2cc(C(F)(F)F)nn2-c2ccc(S(N)(=O)=O)cc2)CC1	61.2 mg/kg	
NS(=O)(=O)c1ccc(-n2nc(C(F)(F)F)cc2C2=CCNCC2)cc1		inhibition in vivo at 100 mg/kg (Rattus norvegicus [2]): 7.1%
CCOC(=O)N1CC=C(c2cc(C(F)(F)F)nn2-c2ccc(S(C)(=O)=O)cc2)CC1		inhibition in vivo at 100 mg/kg (Rattus norvegicus [2]): 24.1%
CS(=O)(=O)c1ccc(-n2nc(C(F)(F)F)cc2C2=CCN(N=O)CC2)cc1	115 mg/kg	
CN1CC=C(c2cc(C(F)(F)F)nn2-c2ccc(S(C)(=O)=O)cc2)CC1	95.3 mg/kg	
